Active and inactive are the calls of the source. No cut-off for these calls is given here.
Key:
Falcipain 2 = molecular target: T1, Falcipain 2 (Plasmodium falciparum, UniProt Q9N6S8); experiment: Inhibition of Plasmodium falciparum recombinant falcipain-2 using ZFR-AMC as substrate after 30 mins by fluorometric assay
T1 sequence (Q9N6S8 whole entry): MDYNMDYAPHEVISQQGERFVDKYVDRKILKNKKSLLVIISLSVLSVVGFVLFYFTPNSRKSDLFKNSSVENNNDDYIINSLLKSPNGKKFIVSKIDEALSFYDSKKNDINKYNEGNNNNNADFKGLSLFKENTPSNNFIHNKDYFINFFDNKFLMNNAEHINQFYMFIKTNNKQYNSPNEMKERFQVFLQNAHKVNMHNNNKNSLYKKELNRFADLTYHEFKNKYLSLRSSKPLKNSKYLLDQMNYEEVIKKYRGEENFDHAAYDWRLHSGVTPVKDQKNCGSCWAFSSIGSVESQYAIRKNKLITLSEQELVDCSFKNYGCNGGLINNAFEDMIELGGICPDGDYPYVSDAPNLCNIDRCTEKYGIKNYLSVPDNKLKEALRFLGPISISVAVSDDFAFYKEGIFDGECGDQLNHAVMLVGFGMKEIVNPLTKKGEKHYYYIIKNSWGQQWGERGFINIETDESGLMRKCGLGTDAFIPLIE

Plasmodium falciparum [1] = experiment: Antimalarial activity against Plasmodium falciparum 3D7 infected in human erythrocytes after 48 hrs by SYBR green assay; type: functional, organism-based
CHO = experiment: Cytotoxicity against CHO cells after 24 hrs by WST-1 assay; type: cell-based; conditions: Cricetulus griseus
Plasmodium falciparum [2] = experiment: Antimalarial activity against Plasmodium falciparum Dd2 infected in human erythrocytes after 48 hrs by SYBR green assay; type: functional; conditions: Dd2, 48 h
Plasmodium falciparum [3] = experiment: Antimalarial activity against Plasmodium falciparum isolate MCamp infected in human erythrocytes after 48 hrs by SYBR green assay; type: functional, organism-based
Plasmodium falciparum [4] = experiment: Selectivity ratio of EC50 for Plasmodium falciparum 3D7 to EC50 for Plasmodium falciparum Dd2; type: functional
Plasmodium falciparum [5] = experiment: Antimalarial activity against asexual stage Plasmodium falciparum assessed as growth arrest at trophozoite stage after 32 to 60 hrs relative to control; type: functional, organism-based
Plasmodium falciparum [6] = experiment: Antimalarial activity against asexual stage Plasmodium falciparum assessed as abnormal parasites after 60 hrs relative to control; type: functional, organism-based
Plasmodium falciparum [7] = experiment: Selectivity ratio of EC50 for Plasmodium falciparum Dd2 to EC50 for Plasmodium falciparum 3D7; type: functional
Plasmodium falciparum [8] = experiment: Selectivity ratio of EC50 for Plasmodium falciparum isolate MCamp to EC50 for Plasmodium falciparum 3D7; type: functional
[9] = Selectivity ratio of IC50 for CHO cells to IC50 for Plasmodium falciparum; type: ADME, cell-based; conditions: hamster, read-out: Ratio IC50
Plasmodium falciparum [10] = experiment: Antimalarial activity against asexual stage Plasmodium falciparum assessed as morphological abnormalities after 32 to 46 hrs relative to control; type: functional, organism-based
Plasmodium falciparum [11] = experiment: Antimalarial activity against asexual stage Plasmodium falciparum assessed as abnormal food vacuole after 32 to 46 hrs relative to control; type: functional, organism-based
[12] = Plasmodium falciparum, 3D7, 48 h, read-out: IC50

Row | SMILES | Ki (Falcipain 2) | IC50 (Plasmodium falciparum [1]; [12]) | IC50 (CHO) | other results
1 | COC(=O)C1CCN(CC(=O)N[C@@H](CC(C)C)C(=O)N[C@@H](CC(C)C)C(=O)N[C@H](C(=O)N2CCC[C@H]2COc2ccc(F)cc2)c2ccccc2)CC1 | > 100000 nM |  |  | IC50 (Plasmodium falciparum [1]): Not Active
2 | COC(=O)C1CCN(CC(=O)N[C@@H](CC(C)C)C(=O)N[C@@H](CC(C)C)C(=O)N[C@@H](Cc2c[nH]c3ccccc23)C(=O)N2CCC[C@H]2COc2ccc(F)cc2)CC1 | 4600 nM | 6.7 µM | > 500 µM | 
3 | CC(C)C[C@H](NC(=O)[C@H](CC(C)C)NC(=O)N1CCCCC1)C(=O)N[C@@H](Cc1c[nH]c2ccccc12)C(=O)N1CCC[C@H]1COc1ccc(F)cc1 | 400 nM | 9.7 µM |  | 
4 | CC(C)C[C@H](NC(=O)CN1CCC(CCO)CC1)C(=O)N[C@@H](CC(C)C)C(=O)N[C@@H](Cc1c[nH]c2ccccc12)C(=O)N1CCC[C@H]1COc1ccc(F)cc1 | 3290 nM | 6.7 µM |  | 
5 | CC(C)C[C@H](NC(=O)CN1CCN(C)CC1)C(=O)N[C@@H](CC(C)C)C(=O)N[C@H](C(=O)N1CCC[C@H]1COc1ccc(F)cc1)c1ccccc1 | > 10000 nM |  |  | IC50 (Plasmodium falciparum [1]): Not Active
6 | CC(C)C[C@H](NC(=O)[C@H](CC(C)C)NC(=O)N1CCCCC1)C(=O)N[C@H](C(=O)N1CCN=C1COc1ccc(F)cc1)c1ccccc1 | 800 nM | 5.2 µM |  | EC50 (Plasmodium falciparum [2]): 1900 nM; EC50 (Plasmodium falciparum [3]): 1.2 µM; Ratio EC50 (Plasmodium falciparum [4]): 3; Activity (Plasmodium falciparum [5]): Active; Activity (Plasmodium falciparum [6]): Active
7 | CC(C)C[C@H](NC(=O)[C@H](CC(C)C)NC(=O)N1CCOCC1)C(=O)N[C@@H](Cc1c[nH]c2ccccc12)C(=O)N1CCC[C@H]1COc1ccc(F)cc1 | 400 nM | 10 µM |  | 
8 | CC(C)C[C@H](NC(=O)CN1CCC(CCO)CC1)C(=O)N[C@@H](CC(C)C)C(=O)N[C@H](C(=O)N1CCC[C@H]1COc1ccc(F)cc1)c1ccccc1 | > 10000 nM |  |  | IC50 (Plasmodium falciparum [1]): Not Active
9 | CC(C)C[C@H](NC(=O)[C@H](CC(C)C)NC(=O)N1CCOCC1)C(=O)N[C@H](C(=O)N1CCN=C1COc1ccc(F)cc1)c1ccccc1 | 7000 nM | > 5 µM |  | 
10 | COc1ccc(OC[C@@H]2CCCN2C(=O)[C@H](Cc2ccccc2)NC(=O)[C@H](CC(C)C)NC(=O)[C@H](CC(C)C)NC(=O)N2CCCCC2)cc1 | 300 nM | 35.7 µM | 40 µM | 
11 | CC(C)C[C@H](NC(=O)[C@H](CC(C)C)NC(=O)N1CCCCC1)C(=O)N[C@@H](Cc1ccccc1)C(=O)NNc1ccccc1 | 800 nM | 14.2 µM | 99 µM | 
12 | CC(C)C[C@H](NC(=O)[C@H](CC(C)C)NC(=O)N1CCOCC1)C(=O)N[C@H](C(=O)N1CCC[C@H]1COc1ccc(F)cc1)c1ccccc1 | 1100 nM | 0.9 µM | 168 µM | EC50 (Plasmodium falciparum [2]): 7500 nM; EC50 (Plasmodium falciparum [3]): 12.1 µM; Ratio EC50 (Plasmodium falciparum [7]): 8; Ratio EC50 (Plasmodium falciparum [8]): 8; Activity (Plasmodium falciparum [5]): Active; Activity (Plasmodium falciparum [6]): Active; selectivity ratio [9]: 150
13 | CC(C)C[C@H](NC(=O)[C@H](CC(C)C)NC(=O)N1CCOCC1)C(=O)N[C@@H](Cc1ccccc1)C(=O)N1CCC[C@H]1COc1ccc(F)cc1 | 300 nM | 10.2 µM | 53 µM | 
14 | CC(C)C[C@H](NC(=O)[C@H](CC(C)C)NC(=O)N1CCCCC1)C(=O)N[C@H](C(=O)N1CCC[C@H]1COc1ccc(F)cc1)c1ccccc1 | 1300 nM |  |  | IC50 (Plasmodium falciparum [1]): Not Active
15 | CC(C)C[C@H](NC(=O)c1ccco1)C(=O)N[C@@H](CC(C)C)C(=O)N[C@@H](Cc1ccccc1)C(=O)NNc1ccccc1 | 600 nM | 27.9 µM | 114 µM | 
16 | CC(C)C[C@H](NC(=O)N1CCOCC1)c1nc(C(=O)N[C@@H](Cc2ccccc2)C(=O)N2CCC[C@H]2COc2ccc(F)cc2)co1 | 8600 nM |  |  | IC50 (Plasmodium falciparum [1]): Not Active

Further lines, with some results ahead:

Row | Ki (Falcipain 2) | IC50 (Plasmodium falciparum [1]; [12]) | SMILES | IC50 (CHO) | other results
17 | 6200 nM | 18.8 µM | CC(C)C[C@H](NC(=O)CN1CCC(CCO)CC1)C(=O)N[C@@H](CC(C)C)C(=O)N[C@@H](Cc1c[nH]c2ccccc12)C(=O)N1CCN=C1COc1ccc(F)cc1 |  | 
18 | 13600 nM | 10 µM | CC(C)C[C@H](NC(=O)CN1CCC(O)CC1)C(=O)N[C@@H](CC(C)C)C(=O)N[C@@H](Cc1c[nH]c2ccccc12)C(=O)N1CCN=C1COc1ccc(F)cc1 |  | 
19 | 1800 nM | > 5 µM | CC(C)C[C@H](NC(=O)[C@H](CC(C)C)NC(=O)N1CCOCC1)C(=O)N[C@@H](Cc1c[nH]c2ccccc12)C(=O)N1CCN=C1COc1ccc(F)cc1 |  | 
20 | 10600 nM | 17.5 µM | CC(C)C[C@H](NC(=O)CN1CCN(C)CC1)C(=O)N[C@@H](CC(C)C)C(=O)N[C@@H](Cc1c[nH]c2ccccc12)C(=O)N1CCN=C1COc1ccc(F)cc1 |  | 
21 | 7490 nM |  | CC(C)C[C@H](NC(=O)CN1CCN(C)CC1)C(=O)N[C@@H](CC(C)C)C(=O)N[C@@H](Cc1c[nH]c2ccccc12)C(=O)N1CCC[C@H]1COc1ccc(F)cc1 |  | IC50 (Plasmodium falciparum [1]): Not Active
22 | 200 nM | 5.5 µM | CC(C)C[C@H](NC(=O)[C@H](CC(C)C)NC(=O)N1CCCCC1)C(=O)N[C@@H](Cc1c[nH]c2ccccc12)C(=O)N1CCN=C1COc1ccc(F)cc1 | > 468 µM | EC50 (Plasmodium falciparum [2]): 1700 nM; EC50 (Plasmodium falciparum [3]): 6.6 µM; Ratio EC50 (Plasmodium falciparum [4]): 3; Activity (Plasmodium falciparum [5]): Active; Activity (Plasmodium falciparum [10]): Active; Activity (Plasmodium falciparum [11]): Active; Activity (Plasmodium falciparum [6]): Active
23 | 2530 nM | 16.7 µM | CC(C)C[C@H](NC(=O)CN1CCC(O)CC1)C(=O)N[C@@H](CC(C)C)C(=O)N[C@@H](Cc1c[nH]c2ccccc12)C(=O)N1CCC[C@H]1COc1ccc(F)cc1 |  | 

Source: ChEMBL document CHEMBL3407376, “Identification of novel class of falcipain-2 inhibitors as potential antimalarial agents” (Bioorg Med Chem, 2015)
